{"source": "patent US20040071687A1", "about": "“Adult stem cell recruitment” (priority 2002, published 2004)", "molecules": {"B1": {"name": "G-CSF: recombinant granulocyte colony stimulating factor (R&D Systems), s.c. daily day 0-5 (protein, UniProt P09919 31-207, looked up)", "Granulocyte …": "TPLGPASSLPQSFLLKCLEQVRKIQGDGAALQEKLVSECATYKLCHPEELVLLGHSLGIPWAPLSSCPSQALQLAGCLSQLHSGLFLYQGLLQALEGISPELGPTLDTLQLDVADFATTIWQQMEELGMAPALQPTQGAMPAFASAFQRRAGGVLVASHLQSFLEVSYRVLRHLAQP"}}, "key": {"[1]": {"system": "Sca-1+ bone marrow cells", "experiment": "Cell cycle analysis of bone marrow Sca-1+ cells after 5-FU", "assay_type": "in vivo, mice", "description": "(§1) Administration of 5-FU. MMP-9^−/− and MMP-9^+/+ mice were injected with the cell cycle cytotoxic agent 5-fluorouracil (5-FU) to deplete cycling hematopoietic cells. In particular, 250 mg/kg body weight 5-FU (Pharmacia & Upjohn Company) was administered intravenously (i.v.). At specified time points, mice were sacrificed. Femurs were flushed and bone marrow cells were used for cell cycle analysis or subjected to magnetic bead isolation (MACS) (Miltenyi Biotec). Lineage-negative bone marrow cells were isolated by MACS after labeling the cells with a depletion cocktail of lineage-specific monoclonal antibodies (mAbs), including CD5, CD45R, CD11b, Gr-1, TER119, 7/4 (Stem Cell Technology, Canada). Lin^− cells were MACS isolated with mAb against Sca-1. […] For cell cycle analysis whole bone marrow cells of MMP-9^−/− and MMP-9^+/+ mice were labeled with Sca-1-FITC. Lin^−Sca-1^+bone marrow cells were labeled with c-Kit-FITC. Labeled bone marrow cells and Lin^−Sca-1^+cells were fixed in ice-cold ethanol for 30 min. After RNAase treatment (Sigma, MO), cells were stained with propidium iodide (Molecular-Probes, Oregon). The DNA content of Sca-1 and Lin^−Sca-1^+c-Kit^+ cells was determined by FACS (Coulter flow cytometer)."}, "[2]": {"system": "MMP-9−/− and MMP-9+/+ mice", "experiment": "5-FU myelosuppression: survival and hematopoietic recovery", "description": "as §1, with “cytometer). […]” for “cytometer).”\nPeripheral blood analysis. Blood was collected with capillary pipettes by retro-orbital bleeding and WBC counts were determined by using a hemocytometer. […]"}, "[3]": {"system": "human CD34+ cells", "experiment": "In vitro transmigration through reconstituted basement membranes (Matrigel transwell)", "assay_type": "cell-based", "conditions": "for migration of CD34+ cells: Matrigel-coated transwell, SDF-1 100 ng/ml in lower chamber, inhibitor in both chambers (CGS 27023A 1 nM; 5-phenyl-1,10-phenanthroline 1 mM)", "description": "Substrate zymography. Supernatants from human MACS-isolated CD34^+ (5×10^3) cells were collected after overnight incubation in serum-free medium with/without SDF-1 (150 ng/ml R&D-Systems) or VEGF (50 ng/ml, PeproTech). MMP activity was determined by gelatin zymography (Lane et al., 2000).\nIn vitro transmigration through reconstituted basement membranes. […] CD34^+ cells were added to 8 μm pore Matrigel-coated (BD) transwell inserts (Costar, Cambridge Mass.). […] Transmigrated cells were quantified, placed in a clonogenic assay and in long-term cultures to measure the number of CAFC and LTC-IC (Jo et al., 2000)."}, "[4]": {"system": "MS-5 murine stromal cells", "experiment": "Release of sKitL from stromal cell line cultures", "assay_type": "cell-based", "conditions": "MS-5 cells, serum-free medium, 24 hours", "description": "Stromal cell line cultures. […] Immunoassay for chemokines and cytokines. Plasma levels of SDF-1, VEGF, and sKitL were measured using commercially available ELISA (R&D Systems)."}, "[5]": {"system": "white blood cells and hematopoietic progenitors (CFU-Cs)", "experiment": "Mobilization of white blood cells and progenitors (peripheral blood analysis, CFU-C)", "assay_type": "in vivo, mice", "conditions": "for mobilization of mature white blood cells and hematopoietic progenitors (CFU-Cs): plasma elevation in MMP-9+/+ mice, but not in MMP-9−/− mice", "description": "(§2) Mobilization of bone marrow-derived cells by adenovirus delivered factors. […] The vector was injected i.v. as a single dose. Recombinant G-CSF (R&D Systems, MN) was administered subcutaneously daily from day 0-5 at 50 μg/kg body weight. Recombinant murine KitL (peproTech, NJ) was injected s.c. twice a day at 100 or 200 μg/kg body weight.\nPeripheral blood analysis. Blood was collected with capillary pipettes by retro-orbital bleeding and WBC counts were determined by using a hemocytometer. Peripheral blood mononuclear cells (PBMCs) were isolated from heparinized blood after centrifugation over a discontinuous gradient using Lympholyte-M (Cedarlane, Ontario, Canada).\nProgenitor assay. Peripheral blood mononuclear cells (10^5) were plated in Iscove's modified Dulbecco's medium (IMDM) containing 1.2% methylcellulose (Fisher Scientific, NJ), 30% FBS, 5×10^−3M 2-mercaptoethanol 2 mM L-glutamine, 0.5 mM hemin (Sigma), murine KitL (20 ng/ml), human erythropoietin (6U/ml) and murine IL-3 (50 ng/ml). Colonies (>50 cells) were scored after 7 days (37° C., 5% CO2)."}, "[6]": {"system": "lethally irradiated syngeneic mice", "experiment": "Bone marrow repopulating assay with mobilized PBMCs", "assay_type": "in vivo", "conditions": "for long-term engraftment of lethally irradiated syngeneic mice transplanted with mobilized PBMCs: PBMCs from SCID mice given AdSDF-1, AdVEGF or G-CSF, no MPI, n=12", "description": "Bone marrow repopulating assay. Chemo/cytokine-mobilized PBMCs from SCID mice treated with/without MPI were collected on day 7. PBMCs from G-CSF-treated MMP-9^−/− and MMP-9^+/+ mice were collected on day 5. Mobilized PBMCs (10^5) were injected into lethally irradiated syngeneic animals (9.5 Gy). Survival was monitored."}, "[7]": {"system": "lethally irradiated syngeneic recipients", "experiment": "CFU-S assay", "assay_type": "in vivo", "conditions": "chemokine/cytokine-treated SCID mice given metalloproteinase inhibitor", "description": "CFU-S assay. Mobilized peripheral blood mononuclear cells (10^5/mouse) of chemokine-treated SCID mice were injected i.v. into lethally irradiated syngeneic recipients (9 Gy). Spleens were removed 12 days later and fixed in Bouin's solution. The number of macroscopic spleen colonies was scored."}, "[8]": {"system": "MMP-9", "experiment": "Immunohistochemistry for MMP-9 in bone marrow sections", "assay_type": "in vivo", "conditions": "wild type mice; SDF-1 and VEGF by adenoviral vector, G-CSF recombinant", "description": "Immunohistochemistry. Bone marrow sections were deparaffinized, rehydrated through an alcohol series immersed in 0.1% H2O2 and blocked using an Avidin and Biotin blocking kit (Vector, Burlingame, Calif.). For MMP-9 staining, the M.O.M. immunodetection kit (Vector) was used as recommended. Sections were incubated with MMP-9 mAb (clone 7-11C, Oncogene, MA) for 30 min, washed in PBS, incubated with a biotinylated horse anti-mouse IgG and incubated for 5 min with A&B reagents (Vector). Von Willebrand Factor (vWF) immunohistochemistry was performed on deparaffinized sections, treated with 3% H2O2, incubated with 0.05% Pronase E (Sigma). Sections were stained with anti-human vWF/HRP (Dako). Sections were developed with 3,3′-diaminobenzidine substrate and counterstained with eosin and hematoxylin."}, "[9]": {"system": "sKitL", "experiment": "Plasma sKitL by ELISA after adenoviral vector or cytokine treatment", "assay_type": "in vivo", "conditions": "MMP-9+/+ mice, five days after treatment", "description": "as §2\nImmunoassay for chemokines and cytokines. Plasma levels of SDF-1, VEGF, and sKitL were measured using commercially available ELISA (R&D Systems)."}, "[10]": {"system": "circulating endothelial progenitors (CEPs)", "experiment": "Endothelial progenitor assay (CFU-EC, VEGFR2+ cells)", "assay_type": "in vivo", "conditions": "wild type mice, elevated plasma levels", "description": "Endothelial progenitor assay. Circulating bone marrow-derived CEPs were quantified by colony forming unit-endothelial cell (CFU-EC) as previously described (Hattori et al. 2001a). Mobilized PBMCs were cultured in M199 media (GIBCO-BRL, Gaithersburg, Md.) supplemented with 20% FBS (HyClone, UT), ECGF (30 μg/ml), human FGF-basic (Sigma) and heparin. After 5 weeks of culture, adherent cells were scored for colonies (>10 cells). Endothelial colonies were identified by metabolic uptake of DiI-Acetylated-LDL (1 μg/ml; PerImmune Inc, Rockville, Md.) at 37° C. for 5 hours, and visualized fluorescence microscopy. The number of VEGFR2^+ cells was quantified by FACS using a Cy2-labeled mAb to VEGFR2 (clone DC101, ImClone, NY), (Hattori et al. 2001a)."}}, "data": [{"molecule": "O=c1[nH]cc(F)c(=O)[nH]1", "note": "[5-FU, 5-fluorouracil]", "values": [{"measurement": "total number of Sca-1+ cells in S-phase", "setting": "[1]; MMP-9+/+ mice, day 6 after 5-FU", "result": "2.2±0.05 ×10^5/femur"}, {"measurement": "total number of Sca-1+ cells in S-phase", "setting": "[1]; MMP-9+/+ mice, day 10 after 5-FU", "result": "11.5±0.3 ×10^5/femur"}, {"measurement": "total number of Sca-1+ cells in S-phase", "setting": "[1]; MMP-9−/− mice, day 6 after 5-FU", "result": "1.0±0.03 ×10^5/femur"}, {"measurement": "total number of Sca-1+ cells in S-phase", "setting": "[1]; MMP-9−/− mice, day 10 after 5-FU", "result": "2.1±0.04 ×10^5/femur"}, {"measurement": "survival of 5-FU-treated mice", "setting": "[2]; MMP-9+/+, mouse, in vivo, iv", "result": "all of the MMP-9^+/+ mice survived"}, {"measurement": "death of 5-FU-treated mice", "setting": "[2]; MMP-9−/− mice, single i.v. dose, n=16", "result": 72, "unit": "%"}]}, {"molecule": "c1ccc(-c2cc3cccnc3c3ncccc23)cc1", "note": "[5-phenyl-1,10-phenanthroline]", "values": [{"measurement": "migration of CD34+ cells", "setting": "[3]", "result": "completely blocked"}]}, {"molecule": "COc1ccc(S(=O)(=O)N(Cc2cccnc2)[C@@H](C(=O)NO)C(C)C)cc1", "note": "[CGS 27023A]", "values": [{"measurement": "migration of CD34+ cells", "setting": "[3]", "result": "completely blocked"}, {"measurement": "release of sKitL", "setting": "[4]", "result": "blocked"}, {"measurement": "white blood cell counts and chemokine-induced mobilization", "setting": "[5]; MMP-9 competent mice (data not shown)", "result": "decreased white blood cell counts and blocked chemokine-induced mobilization"}, {"measurement": "time within which all recipient mice died", "setting": "[6]; recipients of PBMCs from MPI-treated mice", "result": "≤ 19", "unit": "days"}, {"measurement": "mobilization of hematopoietic cells with short-term repopulating potential (CFU-S)", "setting": "[7]", "result": "completely blocked"}]}, {"molecule": "VEGF", "values": [{"measurement": "immunoreactive MMP-9 in bone marrow stromal and hematopoietic cells", "setting": "[8]", "result": "increased immunoreactive MMP-9"}, {"measurement": "release of pro-MMP-9 and migration of human CD34+ progenitor and stem cells", "setting": "[3]; transwell migration assay, chemoattractant", "result": "stimulate the release of pro-MMP-9 and induce migration"}, {"measurement": "plasma sKitL levels compared to untreated animals", "setting": "[9]", "result": "increased plasma sKitL levels"}, {"measurement": "mobilization of mature white blood cells and hematopoietic progenitors (CFU-Cs)", "setting": "[5]", "result": "mobilized mature white blood cells"}, {"measurement": "long-term engraftment of lethally irradiated syngeneic mice transplanted with mobilized PBMCs", "setting": "[6]", "result": 40, "unit": "%"}, {"measurement": "mobilization of circulating endothelial progenitors (CFU-EC, VEGFR2)", "setting": "[10]", "result": "increased the mobilization of circulating endothelial progenitors"}]}, {"molecule": "B1", "values": [{"measurement": "immunoreactive MMP-9 in bone marrow stromal and hematopoietic cells", "setting": "[8]", "result": "increased immunoreactive MMP-9"}, {"measurement": "plasma sKitL levels compared to untreated animals", "setting": "[9]", "result": "increased plasma sKitL levels"}, {"measurement": "mobilization of mature white blood cells and hematopoietic progenitors (CFU-Cs)", "setting": "[5]", "result": "mobilized mature white blood cells"}, {"measurement": "survival of transplanted recipients", "setting": "[6]; MMP-9+/+ mice, PBMCs obtained day 5, n=8/group", "result": 100, "unit": "%"}, {"measurement": "day by which all mice died", "setting": "[6]; MMP-9−/− mice treated with G-CSF, n=8/group", "result": "~18", "unit": "days"}, {"measurement": "long-term engraftment of lethally irradiated syngeneic mice transplanted with mobilized PBMCs", "setting": "[6]", "result": 80, "unit": "%"}]}]}
